Activity calls are given as the source filed them. No cut-off for these calls is given here.
Experiments:
[1] = tested on: MCF7; test: Cytotoxicity against human MCF7 cells at 5 uM by MTT assay; assay type: functional
[2] = tested on: MDA-MB-231; test: Cytotoxicity against human MDA-MB-231 cells at 10 uM by MTT assay; assay type: functional
[3] = organism: Sus scrofa; test: Inhibition of pig CK1delta/epsilon
[4] = molecular target: T1, Serine/threonine-protein kinase haspin (Homo sapiens) (UniProt Q8TF76); test: Inhibition of human HASPIN
T1 sequence (whole entry): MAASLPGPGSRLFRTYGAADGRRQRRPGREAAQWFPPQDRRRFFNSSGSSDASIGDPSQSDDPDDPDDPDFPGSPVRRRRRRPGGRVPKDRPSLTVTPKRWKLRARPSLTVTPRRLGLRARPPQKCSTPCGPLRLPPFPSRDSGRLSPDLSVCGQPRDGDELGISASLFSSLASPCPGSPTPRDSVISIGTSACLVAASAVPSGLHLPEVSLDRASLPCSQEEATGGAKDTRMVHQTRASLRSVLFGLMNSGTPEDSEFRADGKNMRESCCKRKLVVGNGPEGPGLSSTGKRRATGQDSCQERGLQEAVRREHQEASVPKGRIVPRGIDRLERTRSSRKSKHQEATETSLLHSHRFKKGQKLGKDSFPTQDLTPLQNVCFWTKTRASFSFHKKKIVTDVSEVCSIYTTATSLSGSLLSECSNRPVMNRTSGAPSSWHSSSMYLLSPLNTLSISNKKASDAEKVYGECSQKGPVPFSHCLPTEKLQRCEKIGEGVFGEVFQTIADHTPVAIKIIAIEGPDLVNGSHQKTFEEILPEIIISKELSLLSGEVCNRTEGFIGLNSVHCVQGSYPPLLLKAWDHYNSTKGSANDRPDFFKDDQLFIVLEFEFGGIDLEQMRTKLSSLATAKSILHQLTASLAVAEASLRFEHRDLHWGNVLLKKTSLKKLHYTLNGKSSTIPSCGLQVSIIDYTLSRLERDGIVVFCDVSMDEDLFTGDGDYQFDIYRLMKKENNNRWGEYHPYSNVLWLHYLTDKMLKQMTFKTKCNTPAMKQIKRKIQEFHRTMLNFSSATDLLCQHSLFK

[5] = molecular target: Aurora kinase B/Inner centromere protein (Homo sapiens) (UniProt Q96GD4+Q9NQS7); test: Inhibition of human AURKB/INCENP; assay type: protein-complex assay
[6] = molecular target: T2, Phosphatidylinositol 4,5-bisphosphate 3-kinase catalytic subunit alpha isoform (Homo sapiens, UniProt P42336); test: Inhibition of PI3Kalpha catalytic domain (unknown origin) using PIP2 liposomes as substrate in presence of biotin-labeled PIP3 and GST-GRP1-PH by streptavidin-HRP based assays
T2 sequence (P42336 whole entry, the tested form may be a part, canonical isoform): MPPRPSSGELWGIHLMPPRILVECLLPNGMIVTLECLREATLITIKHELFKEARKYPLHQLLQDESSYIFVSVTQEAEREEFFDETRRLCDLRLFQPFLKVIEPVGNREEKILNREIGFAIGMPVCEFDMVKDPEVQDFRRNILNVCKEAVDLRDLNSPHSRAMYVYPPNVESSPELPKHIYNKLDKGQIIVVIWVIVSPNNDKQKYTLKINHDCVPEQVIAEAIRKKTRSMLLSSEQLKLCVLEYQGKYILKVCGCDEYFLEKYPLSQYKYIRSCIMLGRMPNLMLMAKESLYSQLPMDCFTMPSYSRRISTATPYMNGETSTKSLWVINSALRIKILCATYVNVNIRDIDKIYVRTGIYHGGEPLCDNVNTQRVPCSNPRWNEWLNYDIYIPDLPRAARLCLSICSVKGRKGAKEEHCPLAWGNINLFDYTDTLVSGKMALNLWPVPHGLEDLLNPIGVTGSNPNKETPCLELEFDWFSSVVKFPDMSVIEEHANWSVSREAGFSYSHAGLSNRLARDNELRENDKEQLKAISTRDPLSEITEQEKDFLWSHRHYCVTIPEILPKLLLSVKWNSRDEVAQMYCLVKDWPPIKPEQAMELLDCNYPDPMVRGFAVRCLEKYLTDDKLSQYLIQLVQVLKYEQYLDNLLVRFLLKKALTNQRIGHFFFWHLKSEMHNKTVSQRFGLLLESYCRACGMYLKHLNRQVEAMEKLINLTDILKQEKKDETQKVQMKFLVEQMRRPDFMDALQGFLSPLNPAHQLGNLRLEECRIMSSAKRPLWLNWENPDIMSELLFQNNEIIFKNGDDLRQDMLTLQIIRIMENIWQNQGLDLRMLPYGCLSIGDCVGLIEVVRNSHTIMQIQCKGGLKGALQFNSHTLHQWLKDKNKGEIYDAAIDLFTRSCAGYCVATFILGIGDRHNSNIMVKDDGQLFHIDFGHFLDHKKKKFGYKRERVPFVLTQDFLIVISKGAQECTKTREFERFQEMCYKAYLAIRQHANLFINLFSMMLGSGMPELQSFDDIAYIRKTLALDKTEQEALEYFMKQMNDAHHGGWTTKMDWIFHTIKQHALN

[7] = Tmax in NOD/SCID mouse at 0.5 mg/kg, ip administered as single dose by LC-MS/MS method; assay type: ADME, organism-based; conditions: in vivo
[8] = Cmax in NOD/SCID mouse at 10 mg/kg, ip administered as single dose by LC-MS/MS method; assay type: ADME, organism-based; design: dose 10 mg/kg, route intraperitoneal; conditions: in vivo
[9] = Tmax in NOD/SCID mouse at 10 mg/kg, ip administered as single dose by LC-MS/MS method; assay type: ADME, organism-based; conditions: in vivo
[10] = AUC (0 to 24 hrs) in NOD/SCID mouse at 10 mg/kg, ip by LC-MS/MS method; assay type: ADME, organism-based; design: time < 24 hr, dose 10 mg/kg, route intraperitoneal; conditions: in vivo
[11] = AUC (0 to 24 hrs) in NOD/SCID mouse at 10 mg/kg, ip administered twice by LC-MS/MS method; assay type: ADME, organism-based; design: time < 24 hr, dose 10 mg/kg, route intraperitoneal; conditions: in vivo
[12] = tested on: Mus musculus; test: Toxicity in NOD/SCID mouse assessed as phenotypic changes at 40 mg/kg, ip […]; assay type: organism-based; conditions: in vivo
[13] = molecular target: Macrophage colony-stimulating factor 1 receptor (Homo sapiens) (UniProt P07333); test: Inhibition of human wild type partial length CSF1R (I564 to S939 residues) expressed in bacterial expression system at 10 uM by KinomeScan method relative to control
Chain of Macrophage colony-stimulating factor 1 receptor (Homo sapiens) (P07333 whole entry, the tested form may be a part): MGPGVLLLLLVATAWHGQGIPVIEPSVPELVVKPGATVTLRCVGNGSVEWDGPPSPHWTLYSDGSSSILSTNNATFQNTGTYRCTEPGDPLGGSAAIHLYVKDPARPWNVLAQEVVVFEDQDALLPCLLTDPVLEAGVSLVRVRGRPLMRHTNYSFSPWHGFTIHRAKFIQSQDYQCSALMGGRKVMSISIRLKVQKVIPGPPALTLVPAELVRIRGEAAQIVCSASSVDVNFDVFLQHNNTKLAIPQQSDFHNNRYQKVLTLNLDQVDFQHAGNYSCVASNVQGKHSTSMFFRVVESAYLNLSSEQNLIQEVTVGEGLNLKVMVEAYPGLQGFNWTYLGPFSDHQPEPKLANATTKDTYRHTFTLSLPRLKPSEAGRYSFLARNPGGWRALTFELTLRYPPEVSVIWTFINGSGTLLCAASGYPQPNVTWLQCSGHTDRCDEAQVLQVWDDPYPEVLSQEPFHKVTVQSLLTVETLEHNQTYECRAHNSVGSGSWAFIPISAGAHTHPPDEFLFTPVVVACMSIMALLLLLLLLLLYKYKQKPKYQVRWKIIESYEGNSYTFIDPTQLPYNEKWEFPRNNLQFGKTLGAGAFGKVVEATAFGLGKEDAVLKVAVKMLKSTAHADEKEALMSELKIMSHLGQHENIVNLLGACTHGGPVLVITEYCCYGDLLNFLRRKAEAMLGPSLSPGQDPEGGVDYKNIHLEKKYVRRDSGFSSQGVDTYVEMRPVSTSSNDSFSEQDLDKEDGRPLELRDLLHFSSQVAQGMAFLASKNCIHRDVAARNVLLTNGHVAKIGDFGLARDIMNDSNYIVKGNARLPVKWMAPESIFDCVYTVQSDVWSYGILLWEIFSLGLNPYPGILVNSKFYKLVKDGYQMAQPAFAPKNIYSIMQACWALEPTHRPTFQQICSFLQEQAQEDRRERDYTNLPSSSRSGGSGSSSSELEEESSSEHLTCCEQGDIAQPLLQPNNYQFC

[14] = molecular target: Ephrin type-A receptor 1 (Homo sapiens) (UniProt P21709); test: Inhibition of human wild type partial length EPHA1 (V588 to I913 residues) expressed in bacterial expression system at 10 uM by KinomeScan method relative to control
[15] = molecular target: Mitogen-activated protein kinase 3 (Homo sapiens) (UniProt P27361); test: Inhibition of human wild type full length ERK1 (M1 to P379 residues) expressed in bacterial expression system at 10 uM by KinomeScan method relative to control
[16] = molecular target: Tyrosine-protein kinase Lck (Homo sapiens) (UniProt P06239); test: Inhibition of human wild type partial length LCK (R207 to P509 residues) expressed in bacterial expression system at 10 uM by KinomeScan method relative to control
[17] = molecular target: Muscle, skeletal receptor tyrosine-protein kinase (Homo sapiens) (UniProt O15146); test: Inhibition of human wild type partial length MUSK (M553 to V869 residues) expressed in bacterial expression system at 10 uM by KinomeScan method relative to control
Chain of Muscle, skeletal receptor tyrosine-protein kinase (Homo sapiens) (O15146 whole entry, the tested form may be a part): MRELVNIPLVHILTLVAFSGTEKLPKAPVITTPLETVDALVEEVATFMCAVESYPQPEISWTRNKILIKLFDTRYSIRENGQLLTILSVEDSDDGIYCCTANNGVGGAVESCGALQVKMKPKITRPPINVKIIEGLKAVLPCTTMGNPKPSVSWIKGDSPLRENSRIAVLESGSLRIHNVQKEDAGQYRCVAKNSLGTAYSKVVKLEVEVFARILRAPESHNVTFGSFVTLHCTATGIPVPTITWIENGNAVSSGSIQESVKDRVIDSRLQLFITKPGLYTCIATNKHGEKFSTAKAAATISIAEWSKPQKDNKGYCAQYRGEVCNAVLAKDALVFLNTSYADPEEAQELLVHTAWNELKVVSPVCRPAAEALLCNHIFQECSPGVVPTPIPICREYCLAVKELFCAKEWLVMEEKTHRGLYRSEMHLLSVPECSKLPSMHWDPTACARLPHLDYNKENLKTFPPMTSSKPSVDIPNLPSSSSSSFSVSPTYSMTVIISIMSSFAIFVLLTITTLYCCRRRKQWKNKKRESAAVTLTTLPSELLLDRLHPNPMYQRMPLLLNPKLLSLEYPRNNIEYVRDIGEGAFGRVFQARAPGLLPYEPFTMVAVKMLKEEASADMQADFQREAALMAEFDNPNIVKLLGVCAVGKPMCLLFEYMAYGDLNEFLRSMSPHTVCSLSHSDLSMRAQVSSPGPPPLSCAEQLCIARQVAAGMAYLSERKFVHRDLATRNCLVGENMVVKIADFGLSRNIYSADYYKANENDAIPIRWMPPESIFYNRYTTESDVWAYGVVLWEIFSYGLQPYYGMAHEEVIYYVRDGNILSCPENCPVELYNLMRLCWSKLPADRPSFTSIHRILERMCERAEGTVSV

[18] = molecular target: Platelet-derived growth factor receptor beta (Homo sapiens) (UniProt P09619); test: Inhibition of human wild type partial length PDGFRB (V582 to Y1009 residues) expressed in bacterial expression system at 10 uM by KinomeScan method relative to control
[19] = molecular target: T2, Phosphatidylinositol 4,5-bisphosphate 3-kinase catalytic subunit alpha isoform; test: Inhibition of human wild type partial length PIK3CA (R108 to N1068 residues) expressed in mammalian expression system at 10 uM by KinomeScan method relative to control
[20] = tested on: Phosphatidylinositol 4,5-bisphosphate 3-kinase catalytic subunit alpha isoform (Homo sapiens), P42336 [H1047Y]; test: Inhibition of human wild type partial length PIK3CA H1047Y mutant (R108 to N1068 residues) expressed in mammalian expression system at 10 uM by KinomeScan method relative to control
Chain of Phosphatidylinositol 4,5-bisphosphate 3-kinase catalytic subunit alpha isoform (Homo sapiens), P42336 [H1047Y] (P42336 whole entry H1047Y, the tested form may be a part, canonical isoform): as the sequence (P42336 whole entry, the tested form may be a part, canonical isoform) above, with H1047Y counted along it

[21] = molecular target: Proto-oncogene tyrosine-protein kinase Src (Homo sapiens) (UniProt P12931); test: Inhibition of human wild type partial length SRC (L240 to L536 residues) expressed in bacterial expression system at 10 uM by KinomeScan method relative to control
Chain of Proto-oncogene tyrosine-protein kinase Src (Homo sapiens) (P12931 2-536 limits assumed): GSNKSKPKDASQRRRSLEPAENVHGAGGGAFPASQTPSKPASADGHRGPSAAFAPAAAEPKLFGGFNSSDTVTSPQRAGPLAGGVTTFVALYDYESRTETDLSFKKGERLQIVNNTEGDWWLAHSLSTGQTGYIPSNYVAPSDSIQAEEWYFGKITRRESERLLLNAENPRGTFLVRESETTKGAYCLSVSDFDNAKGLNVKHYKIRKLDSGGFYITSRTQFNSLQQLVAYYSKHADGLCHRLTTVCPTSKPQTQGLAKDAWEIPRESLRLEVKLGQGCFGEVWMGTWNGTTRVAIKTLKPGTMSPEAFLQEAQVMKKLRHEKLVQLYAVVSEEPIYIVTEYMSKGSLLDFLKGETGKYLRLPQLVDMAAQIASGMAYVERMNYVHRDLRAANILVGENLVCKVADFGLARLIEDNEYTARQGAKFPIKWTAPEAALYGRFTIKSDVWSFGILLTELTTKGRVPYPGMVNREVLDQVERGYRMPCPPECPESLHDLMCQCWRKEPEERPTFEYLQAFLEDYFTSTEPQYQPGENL

[22] = molecular target: Tyrosine-protein kinase SYK (Homo sapiens) (UniProt P43405); test: Inhibition of human wild type partial length SYK (D354 to N635 residues) expressed in bacterial expression system at 10 uM by KinomeScan method relative to control
[23] = molecular target: Tyrosine-protein kinase Tec (Homo sapiens) (UniProt P42680); test: Inhibition of human wild type partial length TEC (L341 to D620 residues) expressed in bacterial expression system at 10 uM by KinomeScan method relative to control
Chain of Tyrosine-protein kinase Tec (Homo sapiens) (P42680 whole entry, the tested form may be a part): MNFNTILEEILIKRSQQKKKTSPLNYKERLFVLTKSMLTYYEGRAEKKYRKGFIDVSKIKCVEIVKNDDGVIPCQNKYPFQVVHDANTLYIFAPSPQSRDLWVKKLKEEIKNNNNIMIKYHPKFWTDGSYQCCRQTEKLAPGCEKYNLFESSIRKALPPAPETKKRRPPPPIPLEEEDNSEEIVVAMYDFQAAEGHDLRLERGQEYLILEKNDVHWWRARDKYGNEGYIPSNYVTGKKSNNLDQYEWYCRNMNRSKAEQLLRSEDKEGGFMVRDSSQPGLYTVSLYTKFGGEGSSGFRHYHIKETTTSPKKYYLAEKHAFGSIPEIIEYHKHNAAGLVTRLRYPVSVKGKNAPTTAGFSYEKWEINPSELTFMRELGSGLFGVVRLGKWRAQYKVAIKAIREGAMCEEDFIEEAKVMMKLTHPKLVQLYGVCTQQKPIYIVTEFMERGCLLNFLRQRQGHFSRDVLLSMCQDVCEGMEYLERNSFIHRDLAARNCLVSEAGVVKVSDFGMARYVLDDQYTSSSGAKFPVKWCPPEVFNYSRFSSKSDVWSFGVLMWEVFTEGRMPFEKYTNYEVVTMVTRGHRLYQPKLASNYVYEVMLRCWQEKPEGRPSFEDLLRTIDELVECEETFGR

[24] = molecular target: Tyrosine-protein kinase TXK (Homo sapiens) (UniProt P42681); test: Inhibition of human wild type partial length TXK (L238 to W527 residues) expressed in bacterial expression system at 10 uM by KinomeScan method relative to control
[25] = molecular target: Tyrosine-protein kinase ZAP-70 (Homo sapiens) (UniProt P43403); test: Inhibition of human wild type partial length ZAP70 (D20 to G299 residues) expressed in mammalian expression system at 10 uM by KinomeScan method relative to control
Chain of Tyrosine-protein kinase ZAP-70 (Homo sapiens) (P43403 whole entry, the tested form may be a part): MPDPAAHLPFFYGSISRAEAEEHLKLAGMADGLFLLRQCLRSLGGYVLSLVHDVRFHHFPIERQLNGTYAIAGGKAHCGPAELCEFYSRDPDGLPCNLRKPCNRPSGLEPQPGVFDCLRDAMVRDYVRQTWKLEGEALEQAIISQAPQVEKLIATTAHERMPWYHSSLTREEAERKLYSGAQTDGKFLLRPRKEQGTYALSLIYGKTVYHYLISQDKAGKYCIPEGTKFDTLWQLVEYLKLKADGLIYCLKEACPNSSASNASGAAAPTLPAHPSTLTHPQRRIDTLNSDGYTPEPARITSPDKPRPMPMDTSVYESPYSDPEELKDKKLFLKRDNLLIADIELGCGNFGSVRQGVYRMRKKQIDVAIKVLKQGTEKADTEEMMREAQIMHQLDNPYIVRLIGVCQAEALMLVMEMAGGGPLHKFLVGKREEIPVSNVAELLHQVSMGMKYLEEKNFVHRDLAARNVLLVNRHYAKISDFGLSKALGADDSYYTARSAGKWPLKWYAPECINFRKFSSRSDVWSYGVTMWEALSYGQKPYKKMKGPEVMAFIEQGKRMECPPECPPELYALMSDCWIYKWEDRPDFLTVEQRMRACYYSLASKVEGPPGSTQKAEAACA

**Q.** With `Cc1nc2nc(Sc3ccccc3)cnc2cc1NC(=O)Nc1ccccc1` as the compound, how does the Activity [1] read?
**A.** >50%

**Q.** And the Activity [2]?
**A.** >50%

**Q.** What about the inhibition [3] of the same compound?
**A.** inactive

**Q.** What about the inhibition [4] of the same compound?
**A.** inactive

**Q.** What about the inhibition [5] of the same compound?
**A.** inactive

**Q.** What about the IC50 [6] of the same compound?
**A.** 26 µM

**Q.** And the Tmax [7]?
**A.** 0.5 h

**Q.** What about the Cmax [8] of the same compound?
**A.** 4.3 to 4.32 µM

**Q.** What about the Tmax [9] of the same compound?
**A.** 2 h

**Q.** What about the AUC(0-t) at 24 h [10] of the same compound?
**A.** 39.1 µM·h

**Q.** And the AUC(0-t) at 24 h [11]?
**A.** 70.8 µM·h

**Q.** What about the Activity [12] of the same compound?
**A.** Toxic

**Q.** What about the inhibition [13] of the same compound?
**A.** 0%

**Q.** And the inhibition [14]?
**A.** 9%

**Q.** What about the inhibition [15] of the same compound?
**A.** 11%

**Q.** What about the inhibition [16] of the same compound?
**A.** 2%

**Q.** What about the inhibition [17] of the same compound?
**A.** 0%

**Q.** And the inhibition [18]?
**A.** 0%

**Q.** And the inhibition [19]?
**A.** 0%

**Q.** And the inhibition [20]?
**A.** 8%

**Q.** And the inhibition [21]?
**A.** 3%

**Q.** What about the inhibition [22] of the same compound?
**A.** 10%

**Q.** And the inhibition [23]?
**A.** 9%

**Q.** What about the inhibition [24] of the same compound?
**A.** 8%

**Q.** And the inhibition [25]?
**A.** 0%

Source: ChEMBL document CHEMBL4000195, “Design and synthesis of novel 7-aminosubstituted pyrido[2,3-b]pyrazines exhibiting anti-breast cancer activity” (Eur J Med Chem, 2017)
